Results as given in patent US20030204875A1, “Novel agrobacterium-mediated plant transformation method” (priority 1999, published 2003).
Read-outs that look alike come from different tables or passages of the source.

Columns and labels:
rice immature embryos = details: OD660 2.0 plus 20 mM AgNO3, co-culture one day
Experimental: (§1) The following transformation protocols included the following parameters: use of immature embryos that were pre-cultured for less than 24 h; a bacterial inoculation density >2.0 at OD660, a co-culture duration of from one to three days, the use of a higher concentration of auxin or different type of auxin/combination of growth regulators than that required during normal tissue culture, a delay period 3-7d following co-culture (with out selection pressure), no sub-culture of the original explant, a step-wise increase or decrease, depending on the crop and selection scheme and a transformation duration between 9-12 weeks.

corn immature embryos = tested on: corn immature embryos
Experimental: as §1

wheat immature embryos = details: OD660 4.0 plus 20 mM AgNO3, co-culture three days
Experimental: as §1

[1] = tested on: corn immature embryos, genotype LH198 X Hi-II; details: 20 μM silver nitrate
Description: Corn genotype LH198 X Hi-II was used. Corn immature embryos were isolated as described previously. Approximately 30 immature embryos were inoculated for each treatment with Agrobacterium strain ABI harboring plasmid pMON18365 for five minutes and placed on co-culture media for two to three days. There were 4 replicates per treatment. The four treatments included:
Treatment 1: absence of growth inhibiting agent (in both inoculation and co-culture media)
Treatment 2: absence of agent in inoculation media; presence of agent (20 μM silver nitrate) in co-culture media.
Treatment 3: presence of agent (20 μM silver nitrate) in inoculation media; absent in co-culture media
Treatment 4: presence of agent (20 μM silver nitrate) in both inoculation and co-culture media
Within each treatment, five immature embryos were used for transient analysis. This was repeated across all reps within each treatment. The number of GUS spots was determined on both the scutellar surface (scutellar side up) as shown in Table 23 and the number of GUS spots was determined on the axis side of the embryos as shown in Table 24.

[2] = tested on: T-DNA transfer to BMS cells
Experimental: Transformation of BMS suspension cells was performed following the protocol described in Table 8. For transforming kalanchoe leaves, a suspension of cells from Agrobacterium strain A281 was applied after performing mechanical wounding as described in White and Nester. The Agrobacterium strain, A136 harboring a binary vector pMON25457 (FIG. 3) was used as a negative control.
The efficiency of T-DNA delivery to BMS cells was measured by transient GUS expression post co-cultivtion as well as by staining GUS positive colonies appearing on a single piece of filter 4 weeks after co-culture.
During pre-induction, AgNO3 was added at two different levels (20 ? M and 40 ? M final concentration) to the pre-induction medium. The final optical density prior to the induction was adjusted to A660 (OD 0.2). Agrobacterium cells were pre-induced for 15 hours. Measurement of the optical density (measure of growth) was taken at the end of pre-induction, just prior to transformation. Agrobacterium cells pre-induced in the absence of AgNO3 were used as a control.

[3] = tested on: Agrobacterium (strain ABI); format: cell-based; parameters: key: “No Growth” indicates there was not an increase in cell density indicating bacteriocidal or bacteriostatic property of the chemical; “Slow Growth” indicates that a slight increase in cell density was noticed and a higher level may be lethal; “Growth” indicates no effect on bacterial growth at the concentration used relative to growth in control medium; details: control, AgNO3 20 μM; twenty-four hours
Experimental: Each of the chemicals listed in Table 26 was resuspended in MS-BMS media and added (final concentration 50 μM) to a 50 ml overnight culture of Agrobacterium (strain ABI). Twenty-four hours after inoculation the effect of the chemicals on the growth of Agrobacterium was recorded. A known bacteriocidal compound, Carbenicillin at a final concentration of 50 mg/L and AgNO3 (20 μM) were used as controls.

[4] = tested on: Agrobacterium tumefaciens strain EHA 101
Experimental: Three mls of pre-induced Agrobacterium suspension (A660 OD 4.0) was added to a 6-well tissue culture plate as described. After adding the explants to the Agrobacterium suspension cells, the inoculation was performed for 15 minutes. The Agrobacterium suspension was removed and the embryos were placed on semi-solid medium with or without AgNO3 (20 ? M final concentration). All the tissues were incubated for three days in the dark. The amount of Agrobacterium present was estimated at the beginning by randomly sampling immature embryos immediately after inoculation and again at the end of the co-culture period to determine the number of attached Agrobacterium cells per immature embryo explant.

[5] = tested on: T-DNA delivery to immature embryos of corn genotype H99×A188; details: co-culture with 10 μM AgNO3, three days
Experimental: The Agrobacterium strain was pre-induced as described previously and three mls of pre-induced Agrobacterium suspension (A660 OD 1.0, 2.0, 3.0 and 4.0) was used. After adding the explants the Agrobacterium suspension cells, the inoculation was performed for 15 minutes. The Agrobacterium suspension was removed and embryos were placed on 1/2 MS corn co-culture medium supplemented with 10 ? M AgNO3 (final concentration). The co-culture duration was for three days in the dark. The efficiency of T-NA delivery was estimated by a transient GUS analysis three days after co-culture by incubating embryos directly in GUS staining buffer for 12-15 hours and counting the number of GUS foci per immature embryo explant (Table 20).

[6] = EHA 101:pMON25457 pre-induced with 20 μM AgNO3
[7] = EHA 101:pMON25457 pre-induced with 40 μM AgNO3

## O=[N+]([O-])[O-].[Ag+] [AgNO3, silver nitrate]
Rice immature embryos
  Transformation (%): 23%
Corn immature embryos; OD660 2.0 plus 20 μM AgNO3, co-culture three days
  Transformation (%): 18%
Corn immature embryos; OD660 4.0 plus 20 μM AgNO3, co-culture three days
  Transformation (%): 8%
Wheat immature embryos
  Transformation (%): 4%
[1]; Treatment 2 (inoculation)
  Average # GUS spots/embryo (axis): 40.8
  Average # GUS spots/embryo (scutellar surface): 82.5
[1]; Treatment 3 (co-culture)
  Average # GUS spots/embryo (axis): 3.8
  Average # GUS spots/embryo (scutellar surface): 81.8
[1]; Treatment 4 (both)
  Average # GUS spots/embryo (axis): 8.4
  Average # GUS spots/embryo (scutellar surface): 58.9
[2]; Agrobacterium cells treated with AgNO3 during pre-induction
  Stable transformants obtained: no stable transformants
[2]; [6]
  Average # of GUS positive colonies/filter paper: 0
  Results (T-DNA transfer): no transfer
[2]; [7]
  Average # of GUS positive colonies/filter paper: 0
  Results (T-DNA transfer): no transfer
[3]
  Effect (on growth of Agrobacterium): No Growth
[4]; 20 μM AgNO3, three days co-culture
  Effect on growth of Agrobacterium during co-culture: significantly inhibited
[4]; 3d co-culture plus 20 μM AgNO3, versus 0d
  Results (fold reduction of Agrobacterium colonies/explant): 30 fold reduction
[4]; 3d co-culture plus 20 μM AgNO3, 0d value 3 × 10^5 CFU
  Average # of Agrobacterium Colonies/Explant: 1.0 × 10^4 CFU
[5]; OD660 1.0, Pre-induced
  Average number of GUS foci/explant: 7
[5]; OD660 2.0, Not pre-induced (grown in LB)
  Average number of GUS foci/explant: 2
[5]; OD660 2.0, Pre-induced
  Average number of GUS foci/explant: 28
[5]; OD660 3.0, Pre-induced
  Average number of GUS foci/explant: 39
[5]; OD660 4.0, Not pre-induced (grown in LB)
  Average number of GUS foci/explant: <1
[5]; OD660 4.0, Pre-induced
  Average number of GUS foci/explant: 66
